The test system of one experiment is control rats. Briefly: Formalin test in control rats. In kind it is in vivo, rat. The following applies: single bolus doses of up to 1 mg/kg i.p. 30 min pre-test.
Experiment [1] concerns NS20Y neuroblastoma cells. Briefly: Neurite outgrowth in NS20Y neuroblastoma cells. The format is cell-based. How it is done:
NS20Y neuroblastoma cells are grown in Dulbecco's modified Eagle medium (DMEM) containing 10% fetal calf serum (FCS). Cells are removed with trypsin and plated in 30 mm petri dishes onto glass coverslips. […] Cells are cultured for an additional 24 hours, washed with PBS and fixed with Bouin's solution (saturated aqueous picric acid/formalin/acetic acid 15:5:1) for 30 minutes. After fixative is removed with PBS, neurite outgrowth is scored under a phase contrast microscope. […] At least 200 cells are scored in different positions of each dish to determine the percentage of neurite bearing cells with each peptide assayed in duplicate.

For a further experiment, the system named is taxol-treated mice. Briefly: Loss of thermal sensation (Hargreaves) in taxol-treated mice. In kind it is in vivo, mouse. The following applies: 100 μg/kg, 200 μg/kg or 1 mg/kg. The method, then:
Mice were administered taxol in order to induce sensory neuropathy.
The loss of thermal sensation was measured using a Hargreaves sensory testing apparatus as an indicator of sensory neuropathy.

The test system of the next experiment is neuroblastoma cells. Briefly: Neurotrophic activity (neurite outgrowth, choline acetyltransferase, cell death). The format is cell-based.
Experiment [2] deals with streptozotocin (STZ)-diabetic rats. Briefly: Formalin flinch test in streptozotocin-diabetic rats. In kind it is in vivo, rat. Further details: hyperalgesia in formalin test / formalin-induced pain (allodynia): dose or concentration left out as unconfirmed. The method, then: Rats were made diabetic by a single intraperitoneal injection of streptozotocin (STZ) (50 mg/kg body weight, freshly dissolved in 0.9% sterile saline) to ablate pancreatic β cells and induce insulin deficiency as described in Calcutt et al., Pain 68:293-299 (1996). Two days later, diabetes was confirmed in streptozotocin-injected rats by measuring blood glucose levels. Streptozotocin-injected animals with a blood glucose concentration below 15 mmol/l were excluded from subsequent studies, according to the commonly accepted definition of non-fasting hyperglycemia in studies of diabetes in rats.
Both diabetic and control rats were studied at 8 weeks by analyzing the behavioral response to the noxious chemical formalin as an indicator of allodynia (Calcutt et al. supra (1996)). Briefly, rats received a subcutaneous injection of freshly-prepared formalin (50 μl of 0.5% solution in sterile saline) into the dorsal surface of the right hind paw. This concentration of formalin induces sub-maximal behavioral responses in control rats and allows detection of hyperalgesia in diabetic rats during phases Q and 2 (Calcutt et al., Eur. J. Pharmacol. 285:189-197 (1995). Animals were transferred to an observation chamber constructed to allow continuous visualization of the paws. The number of flinches during one minute periods were counted at 5 minute intervals for the next 60 minutes by an observer who was unaware of the treatment group of each animal. Phase 1 was defined as the initial measurement of flinching (1-2 and 5-6 minutes post injection); the Q (quiescent) phase as the measurements made at 10-11, 15-16 and 20-21 minutes; and Phase 2 as all subsequent measurements post injection, as previously defined for studies of diabetic rats (see, for example, Malmberg et al., Neurosci. […] Comparisons of activity during each phase were made by summing the flinches at measurement points within the phase. Diabetic rats gave an abnormal flinch response, as has been reported previously.
Peptide SEQ ID NO:2 was obtained in pure form by chemical synthesis, dissolved in sterile PBS and buffered to a neutral pH. Diabetic rats were divided in two groups of four animals each, which were administered saline or peptide SEQ ID NO:2, respectively.
The formalin testing was done after 4 weeks, of three time weekly injections, and testing was done after the last dose (last bar, FIG. 7).
This EXAMPLE was designed to determine whether prosaptide could also reverse conduction deficits and hyperalgesia in the formalin test pain model once these disorders are established in diabetic rats. SNCV was measured before onset of diabetes and 4-8 weeks later in groups of control, untreated diabetic and prosaptide-treated (200 μg/kg i.p. thrice weekly for the last 4 weeks) diabetic rats. Flinch responses to injection of formalin (50 μl or 0.5% or 5.0% solution) were followed for 60 min in control, 8 week untreated diabetic, […] with prosaptide (200 μg/kg i.p.) thrice weekly for the last 4 weeks (the last treatment being 48-72 hr pre-test).

Another experiment relates to Chung model rats. As to the kind of experiment: Tactile allodynia (von Frey, 50% paw withdrawal threshold) after bolus intrathecal injection in Chung model rats. In kind it is in vivo, rat. The method, then: Each of the three peptides were obtained in pure form by chemical synthesis, dissolved in sterile PBS and buffered to a neutral pH.
The surgical procedure previously described by Kim and Chung, supra (1992) was performed on male Sprague-Dawley rats weighing 120 to 150 grams to induce an allodynic state. Briefly, the rats were anesthetized with halothane; subsequently, the left L-5 and L-6 spinal nerves were isolated adjacent to the vertebral column and ligated with 6.0 silk suture distal to the dorsal root ganglion.
After a ten to fourteen day post operative recovery period, a spinal catheter was introduced. Five days following the second surgery, intrathecal drug administration was accomplished using a gear driven micro-injection syringe connected to a spinal catheter inserted through the foramen magnum. Prior to testing, the rats were placed in clear plastic wire meshed cages and allowed to acclimate.
To assess the 50% mechanical threshold for paw withdrawal, a von Frey hair was applied to the hind foot avoiding the foot pad. Each of the von Frey hairs, which are calibrated to bend at increasing log forces, were pressed perpendicularly to the foot with sufficient force to cause slight bending for a duration of approximately six to eight seconds. A positive response was noted if the foot was sharply withdrawn. Six data points were collected for each point with the maximum and minimum stimulus noted for each time point. The resulting pattern of the responses was tabulated, and the 50% response threshold was computed. The graph gives the response to the indicated dosage of peptide given as a single intrathecal bolus injection. The X-axis indicates the time after the injection at which point the hypersensitivity to pressure on the foot pad was measured.

A further experiment has as its system NS20Y cells. As to the kind of experiment: Neural cell death (trypan blue) in NS20Y cells. The format is cell-based. As to conditions: 8 ng/ml, 2 days in 0.5% fetal bovine serum. The method, then: Media is removed and 0.2% trypan blue in PBS is added to each well. Dead cells stain blue with the trypan blue dye and are scored as a percentage of the total on an inverted microscope, counting 400 cells in four areas of each well. The average error of duplicates is ±5%.

Where [3] appears, read: 200 μg/kg intraperitoneal, two hours before 0.5% formalin.

Entries after “also recorded” stand apart in the source; their conditions may differ. Non-standard residues stand in square brackets, D forms with d. No end group written: not given here. Bounds are passed on as bounds.

As to T[dA]LIDNNATEEILY [SEQ ID NO:2], the “responses to formalin in control rats” value in the experiment on control rats is “without effect on responses to formalin”. Also, the “neurite outgrowth (percentage of neurite bearing cells)” value in experiment [1] (24 hours, compared to a scrambled control peptide) is recorded as “significantly increases neurite outgrowth”. Further, the “concentration at which increased neurite outgrowth is evident” value in experiment [1] (as little as) was 0.5 ng/mL. Besides, the “loss of thermal sensation” value in the experiment with taxol-treated mice is given as “effective in inhibiting loss of thermal sensation”. Further, the neurotrophic activity entry in the experiment on neuroblastoma cells is on record as “have neurotrophic activity”. Moreover, the “hyperalgesia during the formalin test” value is “reduction in hyperalgesia” in experiment [2] (200 μg/kg i.p. thrice weekly for the last 4 weeks, last treatment 48-72 hr pre-test) and “effective in abolishing hyperalgesia” in experiment [2] (single bolus 200 μg/kg i.p. 30 min pre-test, 8 week diabetic rats). The “abnormal flinch response in Phase 1” value in experiment [2] (setting [3]) is given as “completely prevented the abnormal flinch response”. Moreover, the “amelioration of the flinch response in Phase 2” value in experiment [2] (setting [3]) stood at 70%. Further, the “hyperalgesia in formalin test” value in experiment [2] (after 8 weeks of diabetes, i.p. 30 min before testing) is “reversed the hyperalgesia”. The “hyperalgesia in the diabetic rat” value in experiment [2] (given parenterally, FIG. 7) is recorded as “reverses hyperalgesia”. Moreover, the “formalin-induced pain (allodynia)” value in experiment [2] (three time weekly injections for 4 weeks) was “prevention of formalin-induced pain (allodynia)”. In the experiment on Chung model rats (intrathecal bolus), the “time of maximum (peak) effect post-injection” value was in the range of 15 to 30 min. Further, the “time of return to the pre-injection value” in the experiment with Chung model rats (intrathecal bolus, FIG. 2) is at most 60 min. In addition, the “tactile allodynia (force threshold)” value in the experiment on Chung model rats (intrathecal bolus, doses of FIG. 2) is listed as “effective in reducing allodynia”. The “activity in alleviating neuropathic pain as assayed using Chung rats” value in the experiment with Chung model rats (summary statement) is given as “reduces the painful allodynia; also recorded: alleviate neuropathic pain”. The “number of trypan blue-positive (dead) cells” value with NS20Y cells is “substantially reduces the number of trypan blue-positive (dead) cells”.
